Source: ChEMBL document CHEMBL3991601, “The target landscape of clinical kinase drugs” (Science, 2017)
pKd: −log10 of the molar value. One block for each molecule: values may come before it. The source made the active and inactive calls.

Key:
[1] = molecular target: Eukaryotic peptide chain release factor GTP-binding subunit ERF3B (Homo sapiens, UniProt Q8IYD1)
[2] = molecular target: ALK tyrosine kinase receptor (Homo sapiens, UniProt Q9UM73); type: subcellular, K-562, COLO 205, SK-N-BE(2) and MV-4-11, Cell lysate; conditions: read-out: Kd apparent
Chain of ALK tyrosine kinase receptor (Q9UM73 whole entry): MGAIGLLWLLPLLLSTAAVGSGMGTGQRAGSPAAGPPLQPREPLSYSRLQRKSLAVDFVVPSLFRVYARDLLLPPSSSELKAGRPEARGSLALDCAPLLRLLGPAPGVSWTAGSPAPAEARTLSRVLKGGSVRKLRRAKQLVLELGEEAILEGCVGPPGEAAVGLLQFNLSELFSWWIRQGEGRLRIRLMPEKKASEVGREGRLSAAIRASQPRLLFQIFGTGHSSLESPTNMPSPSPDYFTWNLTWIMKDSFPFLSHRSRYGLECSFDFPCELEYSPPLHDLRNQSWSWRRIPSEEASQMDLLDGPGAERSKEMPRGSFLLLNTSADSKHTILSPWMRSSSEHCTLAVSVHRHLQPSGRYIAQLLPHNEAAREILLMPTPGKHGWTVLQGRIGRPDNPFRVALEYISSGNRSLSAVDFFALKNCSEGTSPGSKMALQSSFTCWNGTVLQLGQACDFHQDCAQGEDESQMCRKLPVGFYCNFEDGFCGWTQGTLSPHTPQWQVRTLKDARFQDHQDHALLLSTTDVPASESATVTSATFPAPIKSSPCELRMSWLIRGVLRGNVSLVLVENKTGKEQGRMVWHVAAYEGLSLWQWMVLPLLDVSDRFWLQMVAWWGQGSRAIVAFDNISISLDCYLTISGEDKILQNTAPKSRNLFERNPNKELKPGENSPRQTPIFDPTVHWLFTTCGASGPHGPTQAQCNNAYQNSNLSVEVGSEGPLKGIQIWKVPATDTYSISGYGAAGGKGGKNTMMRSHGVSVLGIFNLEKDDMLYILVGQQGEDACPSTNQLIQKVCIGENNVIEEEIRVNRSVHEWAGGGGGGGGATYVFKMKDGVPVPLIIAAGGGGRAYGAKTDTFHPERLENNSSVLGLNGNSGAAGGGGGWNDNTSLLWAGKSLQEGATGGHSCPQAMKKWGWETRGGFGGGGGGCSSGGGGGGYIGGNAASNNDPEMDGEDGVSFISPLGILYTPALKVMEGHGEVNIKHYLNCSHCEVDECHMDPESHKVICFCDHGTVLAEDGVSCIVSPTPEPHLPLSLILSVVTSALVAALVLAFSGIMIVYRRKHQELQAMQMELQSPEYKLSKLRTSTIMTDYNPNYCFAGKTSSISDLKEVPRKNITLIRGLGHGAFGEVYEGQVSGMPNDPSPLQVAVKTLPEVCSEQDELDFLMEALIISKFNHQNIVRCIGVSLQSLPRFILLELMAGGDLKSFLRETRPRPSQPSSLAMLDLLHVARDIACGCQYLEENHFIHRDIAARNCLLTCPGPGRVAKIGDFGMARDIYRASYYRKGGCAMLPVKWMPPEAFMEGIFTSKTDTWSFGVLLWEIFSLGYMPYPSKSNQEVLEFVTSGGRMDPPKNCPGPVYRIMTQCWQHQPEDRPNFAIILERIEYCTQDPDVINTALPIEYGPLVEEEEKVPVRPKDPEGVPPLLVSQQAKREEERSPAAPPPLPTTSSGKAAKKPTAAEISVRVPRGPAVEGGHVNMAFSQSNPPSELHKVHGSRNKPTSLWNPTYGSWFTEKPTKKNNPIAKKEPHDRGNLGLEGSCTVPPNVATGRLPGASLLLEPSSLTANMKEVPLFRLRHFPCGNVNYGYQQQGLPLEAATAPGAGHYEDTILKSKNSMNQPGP

[3] = molecular target: Serine/threonine-protein kinase 38 (Homo sapiens, UniProt Q15208)
Chain of Serine/threonine-protein kinase 38 (Q15208 whole entry): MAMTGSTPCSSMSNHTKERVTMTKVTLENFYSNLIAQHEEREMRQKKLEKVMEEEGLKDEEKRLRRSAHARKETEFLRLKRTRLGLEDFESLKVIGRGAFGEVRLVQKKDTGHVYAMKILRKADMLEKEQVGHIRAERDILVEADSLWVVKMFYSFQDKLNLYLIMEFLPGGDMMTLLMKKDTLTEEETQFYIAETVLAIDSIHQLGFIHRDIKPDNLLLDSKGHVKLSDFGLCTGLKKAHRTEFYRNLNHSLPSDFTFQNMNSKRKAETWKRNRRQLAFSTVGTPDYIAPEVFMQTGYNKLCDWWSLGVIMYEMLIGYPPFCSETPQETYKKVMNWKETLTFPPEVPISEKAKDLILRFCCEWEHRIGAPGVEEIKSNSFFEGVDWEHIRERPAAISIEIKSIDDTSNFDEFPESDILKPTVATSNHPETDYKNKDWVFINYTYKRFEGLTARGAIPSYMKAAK

[4] = molecular target: T1, Tyrosine-protein kinase Mer (Homo sapiens, UniProt Q12866)
T1 sequence (Q12866 whole entry): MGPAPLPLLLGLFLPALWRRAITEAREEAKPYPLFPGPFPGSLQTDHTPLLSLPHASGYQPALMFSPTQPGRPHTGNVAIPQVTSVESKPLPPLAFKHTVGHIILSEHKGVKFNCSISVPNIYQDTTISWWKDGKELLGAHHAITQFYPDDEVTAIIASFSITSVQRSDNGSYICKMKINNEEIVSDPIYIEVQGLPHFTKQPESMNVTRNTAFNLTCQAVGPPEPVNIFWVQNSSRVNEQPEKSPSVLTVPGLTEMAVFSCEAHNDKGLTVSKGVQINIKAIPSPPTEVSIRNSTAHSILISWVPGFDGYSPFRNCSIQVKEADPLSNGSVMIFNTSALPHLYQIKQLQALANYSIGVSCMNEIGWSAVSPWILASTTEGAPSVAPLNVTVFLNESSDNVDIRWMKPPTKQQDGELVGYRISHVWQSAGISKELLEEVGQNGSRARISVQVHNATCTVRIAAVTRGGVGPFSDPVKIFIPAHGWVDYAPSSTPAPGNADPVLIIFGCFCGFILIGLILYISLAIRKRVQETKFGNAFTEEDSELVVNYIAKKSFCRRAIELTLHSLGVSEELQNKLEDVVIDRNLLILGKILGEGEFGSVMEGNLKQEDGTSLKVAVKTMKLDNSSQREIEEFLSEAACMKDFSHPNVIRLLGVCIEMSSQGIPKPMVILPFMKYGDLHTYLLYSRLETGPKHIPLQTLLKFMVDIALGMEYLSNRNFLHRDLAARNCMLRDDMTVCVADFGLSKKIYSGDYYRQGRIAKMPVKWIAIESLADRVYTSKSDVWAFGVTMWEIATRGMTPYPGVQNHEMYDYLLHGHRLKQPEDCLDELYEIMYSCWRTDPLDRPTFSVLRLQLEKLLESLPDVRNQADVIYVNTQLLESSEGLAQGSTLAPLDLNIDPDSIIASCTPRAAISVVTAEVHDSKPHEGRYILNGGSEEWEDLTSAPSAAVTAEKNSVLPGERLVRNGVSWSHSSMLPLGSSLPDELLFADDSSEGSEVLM

[5] = molecular target: Tyrosine-protein kinase Fgr (Homo sapiens, UniProt P09769)
Chain of Tyrosine-protein kinase Fgr (P09769 whole entry): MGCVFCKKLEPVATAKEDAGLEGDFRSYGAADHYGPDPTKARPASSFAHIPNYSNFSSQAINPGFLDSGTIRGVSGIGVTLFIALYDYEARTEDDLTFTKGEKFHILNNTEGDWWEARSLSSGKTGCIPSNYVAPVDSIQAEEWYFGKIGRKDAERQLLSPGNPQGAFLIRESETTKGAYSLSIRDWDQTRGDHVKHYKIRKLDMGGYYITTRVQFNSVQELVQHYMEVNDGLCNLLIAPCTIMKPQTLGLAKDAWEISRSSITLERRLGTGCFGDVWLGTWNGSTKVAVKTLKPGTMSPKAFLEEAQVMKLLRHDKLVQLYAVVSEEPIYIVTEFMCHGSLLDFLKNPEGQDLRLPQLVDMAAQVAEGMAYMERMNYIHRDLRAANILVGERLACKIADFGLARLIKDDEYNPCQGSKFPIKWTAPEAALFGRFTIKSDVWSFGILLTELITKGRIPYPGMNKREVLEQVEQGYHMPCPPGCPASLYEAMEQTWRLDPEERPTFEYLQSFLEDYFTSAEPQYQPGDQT

[6] = molecular target: Tyrosine-protein kinase JAK2 (Homo sapiens, UniProt O60674)
Chain of Tyrosine-protein kinase JAK2 (O60674 whole entry): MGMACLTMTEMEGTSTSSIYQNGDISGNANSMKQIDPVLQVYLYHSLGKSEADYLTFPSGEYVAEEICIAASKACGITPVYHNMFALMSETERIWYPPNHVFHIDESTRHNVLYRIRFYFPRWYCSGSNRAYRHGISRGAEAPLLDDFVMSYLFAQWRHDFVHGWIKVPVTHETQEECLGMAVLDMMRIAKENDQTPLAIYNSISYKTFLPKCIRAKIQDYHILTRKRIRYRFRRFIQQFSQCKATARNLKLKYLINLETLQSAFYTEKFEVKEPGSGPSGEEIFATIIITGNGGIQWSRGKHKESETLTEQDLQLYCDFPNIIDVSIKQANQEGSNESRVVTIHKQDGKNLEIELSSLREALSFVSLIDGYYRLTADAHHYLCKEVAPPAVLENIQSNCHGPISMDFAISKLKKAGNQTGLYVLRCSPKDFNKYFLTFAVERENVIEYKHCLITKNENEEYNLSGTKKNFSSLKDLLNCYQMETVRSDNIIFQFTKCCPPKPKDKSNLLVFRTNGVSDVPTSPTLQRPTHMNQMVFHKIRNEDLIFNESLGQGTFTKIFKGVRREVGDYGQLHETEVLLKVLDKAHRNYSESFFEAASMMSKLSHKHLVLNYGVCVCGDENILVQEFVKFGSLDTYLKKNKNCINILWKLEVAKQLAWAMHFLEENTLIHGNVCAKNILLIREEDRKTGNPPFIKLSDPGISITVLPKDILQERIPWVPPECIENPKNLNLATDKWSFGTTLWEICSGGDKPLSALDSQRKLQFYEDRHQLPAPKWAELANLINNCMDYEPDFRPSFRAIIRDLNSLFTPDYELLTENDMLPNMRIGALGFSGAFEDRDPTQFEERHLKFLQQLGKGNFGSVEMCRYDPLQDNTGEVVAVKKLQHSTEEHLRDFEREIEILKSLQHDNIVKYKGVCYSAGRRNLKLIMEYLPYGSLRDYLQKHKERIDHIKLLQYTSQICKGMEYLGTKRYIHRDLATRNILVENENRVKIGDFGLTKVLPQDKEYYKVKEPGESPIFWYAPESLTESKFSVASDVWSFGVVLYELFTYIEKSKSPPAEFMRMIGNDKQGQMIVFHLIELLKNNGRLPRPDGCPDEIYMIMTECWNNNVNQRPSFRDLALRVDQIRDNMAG

[7] = molecular target: Cyclin-dependent kinase 10 (Homo sapiens, UniProt Q15131)
Chain of Cyclin-dependent kinase 10 (Q15131 whole entry): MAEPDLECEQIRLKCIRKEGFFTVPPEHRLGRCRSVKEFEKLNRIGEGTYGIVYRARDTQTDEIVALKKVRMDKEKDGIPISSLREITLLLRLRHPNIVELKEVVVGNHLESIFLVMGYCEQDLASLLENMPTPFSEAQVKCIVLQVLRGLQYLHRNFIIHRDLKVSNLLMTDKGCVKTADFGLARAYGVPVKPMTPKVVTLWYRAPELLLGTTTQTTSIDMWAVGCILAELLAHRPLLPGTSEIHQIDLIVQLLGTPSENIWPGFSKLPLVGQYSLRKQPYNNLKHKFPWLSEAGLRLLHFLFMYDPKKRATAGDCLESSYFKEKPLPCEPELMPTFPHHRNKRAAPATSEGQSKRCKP

[8] = molecular target: Nucleoside diphosphate kinase B (Homo sapiens, UniProt P22392)
Chain of Nucleoside diphosphate kinase B (P22392 whole entry): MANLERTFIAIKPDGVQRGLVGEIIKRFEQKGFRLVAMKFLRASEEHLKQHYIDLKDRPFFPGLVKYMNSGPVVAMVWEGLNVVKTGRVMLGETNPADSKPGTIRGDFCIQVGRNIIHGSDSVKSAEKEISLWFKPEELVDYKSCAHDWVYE

[9] = molecular target: Activin receptor type-1-like (Homo sapiens, UniProt P37023)
[10] = molecular target: Dual specificity tyrosine-phosphorylation-regulated kinase 1B (Homo sapiens, UniProt Q9Y463)
Also: in the data inactive means no Kd found up to 30 µM.

Chain of Eukaryotic peptide chain release factor GTP-binding subunit ERF3B (Q8IYD1 whole entry): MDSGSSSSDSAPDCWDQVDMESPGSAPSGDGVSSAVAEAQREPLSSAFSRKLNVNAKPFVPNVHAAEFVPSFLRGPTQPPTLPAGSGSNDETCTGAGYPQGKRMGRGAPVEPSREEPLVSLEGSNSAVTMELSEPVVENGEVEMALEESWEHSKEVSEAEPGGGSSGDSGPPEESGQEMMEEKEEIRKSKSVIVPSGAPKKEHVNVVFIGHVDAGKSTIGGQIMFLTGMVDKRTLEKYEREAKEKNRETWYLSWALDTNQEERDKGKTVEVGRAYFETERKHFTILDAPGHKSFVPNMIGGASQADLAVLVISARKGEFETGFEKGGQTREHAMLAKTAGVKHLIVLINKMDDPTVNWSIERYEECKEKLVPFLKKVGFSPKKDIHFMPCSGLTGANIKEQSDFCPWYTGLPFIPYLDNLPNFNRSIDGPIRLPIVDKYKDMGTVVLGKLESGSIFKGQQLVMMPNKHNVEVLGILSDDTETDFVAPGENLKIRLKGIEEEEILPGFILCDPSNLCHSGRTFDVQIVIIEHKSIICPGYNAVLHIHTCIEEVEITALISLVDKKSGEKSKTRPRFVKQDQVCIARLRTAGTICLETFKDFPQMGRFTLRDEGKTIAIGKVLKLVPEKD

Compound: C[C@H]1CNCCCN1S(=O)(=O)c1cccc2cncc(F)c12
Kd [1]: > 30 µM (inactive)

Compound: CC(=O)c1cnc2ccc(-c3cc(Cl)c(O)c(Cl)c3)nc2c1N[C@H]1CC[C@H](CN(C)C)CC1
Kd [1]: > 30 µM (inactive)
Kd [2]: > 30 µM (inactive)

Compound: C=CC(=O)Nc1cc2c(Nc3ccc(F)c(Cl)c3)ncnc2cc1C#CC(C)(C)N1CCN(C)CC1 [AV-412 FREE BASE]
Kd [10]: > 30 µM (inactive)

Compound: COc1cc([C@@H]2c3cc4c(cc3[C@H](O)[C@H]3COC(=O)[C@@H]23)OCO4)cc(OC)c1OC [AXL-1717]
Kd [7]: > 30 µM (inactive)
Kd [3]: > 30 µM (inactive)

Compound: Cc1cc(C(=O)NOCCO)c(Nc2ccc(I)cc2F)n(C)c1=O [AZD-8330]
Kd [5]: > 30 µM (inactive)
Kd [6]: > 30 µM (inactive)
Kd [9]: > 30 µM (inactive)

Compound: CCn1c(C(=O)N(C2CC2)C2CC2)cc2c3c(ncn3C)c(Nc3cc(C)n(C)n3)nc21 [BMS-911543]
Kd [1]: > 30 µM (inactive)
Kd [2]: > 30 µM (inactive)
Kd [6]: > 30 µM (inactive)
Kd [9]: > 30 µM (inactive)

Compound: CC(C)(C)c1nc(-c2cccc(NS(=O)(=O)c3c(F)cccc3F)c2F)c(-c2ccnc(N)n2)s1 [DABRAFENIB]
Kd [7]: > 30 µM (inactive)
Kd [5]: 1.55 µM (active)
Kd [1]: > 30 µM (inactive)
Kd [4]: > 30 µM (inactive)
Kd [10]: > 30 µM (inactive)

Compound: O=C(Nc1cc(C(F)(F)F)cc(C(F)(F)F)c1)c1cc(Cl)ccc1O [IMD-0354]
Kd [4]: > 30 µM (inactive)

Compound: FC(F)(F)c1ccc(/C=C/c2nc(COc3ccc(CCCCn4ccnn4)cc3)co2)cc1 [MUBRITINIB]
Kd [7]: > 30 µM (inactive)
Kd [8]: > 30 µM (inactive)
Kd [4]: > 30 µM (inactive)

Compound: NC(=O)c1c(OCc2c(F)cc(Br)cc2F)nsc1NC(=O)NCCCCN1CCCC1 [OSI-632]
Kd [5]: > 30 µM (inactive)
Kd [3]: > 30 µM (inactive)

Compound: CCOc1cc2ncc(C#N)c(Nc3ccc(F)c(Cl)c3)c2cc1NC(=O)/C=C/CN(C)C [PELITINIB]
Kd [7]: > 30 µM (inactive)
Kd [3]: > 30 µM (inactive)
Kd [4]: > 30 µM (inactive)

Compound: CC(=O)NCC(=O)N1[C@@H]2CC[C@H]1c1ccc(Nc3ncc(C(F)(F)F)c(NC4CCC4)n3)cc12 [PF-03814735]
Kd [4]: > 30 µM (inactive)

Compound: Cc1cnc(NC(=O)Nc2cc(Br)c(C)cc2OC[C@@H]2CNCCO2)cn1 [RABUSERTIB]
Kd [7]: > 30 µM (inactive)
Kd [1]: > 30 µM (inactive)
Kd [6]: > 30 µM (inactive)
Kd [4]: > 30 µM (inactive)

Compound: CNC(=O)c1cc(Oc2ccc(NC(=O)Nc3cc(C(C)(C)C)nn3-c3ccc4ncccc4c3)c(F)c2)ccn1 [REBASTINIB]
Kd [6]: 4.46 µM (active)
Kd [4]: > 30 µM (inactive)

Compound: N#CC1(c2ccc(NC(=O)c3cccnc3NCc3ccncc3)cc2)CCCC1 [RIVOCERANIB]
Kd [6]: > 30 µM (inactive)
Kd [10]: > 30 µM (inactive)

Compound: N#CC[C@H](C1CCCC1)n1cc(-c2ncnc3[nH]ccc23)cn1 [RUXOLITINIB]
Kd [1]: > 30 µM (inactive)

Compound: CN1CCN(CCOc2cc(OC3CCOCC3)c3c(Nc4c(Cl)ccc5c4OCO5)ncnc3c2)CC1 [SARACATINIB]
Kd [7]: > 30 µM (inactive)
Kd [8]: > 30 µM (inactive)
Kd [6]: > 30 µM (inactive)

Compound: Cn1cc(-c2cnn3c(N)c(Br)c([C@@H]4CCCNC4)nc23)cn1 [SCH-900776]
Kd [5]: > 30 µM (inactive)
Kd [3]: > 30 µM (inactive)

Compound: COc1cc2c(Nc3ccc(Cl)c(Cl)c3F)ncnc2cc1OC[C@@H]1C[C@@H]2CN(C)C[C@@H]2C1 [TESEVATINIB]
Kd [4]: > 30 µM (inactive)

Compound: C[C@@H](NC(=O)c1ncnc(N)c1Cl)c1ncc(C(=O)Nc2cc(C(F)(F)F)c(Cl)cn2)s1 [TOVORAFENIB]
Kd [7]: > 30 µM (inactive)
Kd [4]: > 30 µM (inactive)
Kd [10]: > 30 µM (inactive)

The next lines start with the values.

Kd [3]: > 30 µM (inactive)
Compound: CCNC(=O)C#Cc1ccc2c(c1)NC(=O)/C2=C(\Nc1ccc(CN(C)C)cc1)c1ccccc1

Kd [4]: > 30 µM (inactive)
Compound: C=CC(=O)N1CCC[C@H](n2c(=O)n(-c3ccc(Oc4ccccc4)cc3)c3c(N)ncnc32)C1

Kd [5]: > 30 µM (inactive)
Kd [1]: > 30 µM (inactive)
Kd [6]: > 30 µM (inactive)
Kd [4]: > 30 µM (inactive)
Compound: Cc1nc2cc(-c3nn(C(C)C)c4ncnc(N)c34)ccc2o1

Kd [3]: > 30 µM (inactive)
Kd [2]: > 30 µM (inactive)
Compound: COCc1c(-c2ccc(NC(=O)Nc3cc(C(F)(F)F)ccc3F)c(F)c2)c2c(N)ncnn2c1CN1CCOCC1

Kd [2]: > 30 µM (inactive)
Kd [4]: > 30 µM (inactive)
Compound: Nc1ncnc2c1c(-c1cccc(OCc3ccccc3)c1)cn2[C@H]1C[C@@H](CN2CCC2)C1 [AEW-541]

Kd [7]: > 30 µM (inactive)
Kd [8]: > 30 µM (inactive)
Compound: COc1cc(Nc2ncc3c(n2)-c2ccc(Cl)cc2C(c2c(F)cccc2OC)=NC3)ccc1C(=O)O [ALISERTIB]

Kd [3]: > 30 µM (inactive)
Kd [6]: > 30 µM (inactive)
Kd [9]: > 30 µM (inactive)
Kd [4]: > 30 µM (inactive)
Compound: Cc1csc(-c2nnc(Nc3ccc(Oc4ncccc4-c4ccnc(N)n4)cc3)c3ccccc23)c1 [AMG-900]

pKd [7]: 8.05
Kd [3]: > 30 µM (inactive)
Kd [2]: > 30 µM (inactive)
Kd [9]: 0.015 µM (active)
Compound: O=C(Nc1c[nH]nc1-c1nc2cc(CN3CCOCC3)ccc2[nH]1)NC1CC1 [AT-9283]

Kd [1]: > 30 µM (inactive)
Compound: CNC(=O)c1ccccc1Sc1ccc2c(/C=C/c3ccccn3)n[nH]c2c1 [AXITINIB]

Kd [7]: > 30 µM (inactive)
Kd [5]: > 30 µM (inactive)
Kd [9]: > 30 µM (inactive)
Kd [4]: > 30 µM (inactive)
Compound: Cn1cnc2c(F)c(Nc3ccc(Br)cc3F)c(C(=O)NOCCO)cc21 [BINIMETINIB]

Kd [7]: > 30 µM (inactive)
Kd [3]: > 30 µM (inactive)
Kd [4]: > 30 µM (inactive)
Compound: COc1cc2ncnc(Oc3cccc(NC(=O)Nc4cc(C(C)(C)C(F)(F)F)on4)c3)c2cc1OC [CEP-32496]

Kd [3]: > 30 µM (inactive)
Kd [4]: > 30 µM (inactive)
Kd [10]: > 30 µM (inactive)
Compound: Cc1cc(Nc2ncc(Cl)c(Nc3ccccc3S(=O)(=O)C(C)C)n2)c(OC(C)C)cc1C1CCNCC1 [CERITINIB]

Kd [2]: > 30 µM (inactive)
Kd [4]: > 30 µM (inactive)
Compound: COCC(=O)NC/C=C/c1ccc2ncnc(Nc3ccc(Oc4ccc(C)nc4)c(C)c3)c2c1 [CP-724714]

Kd [5]: > 30 µM (inactive)
Kd [8]: 0.142 µM (active)
Kd [6]: > 30 µM (inactive)
Kd [9]: > 30 µM (inactive)
Compound: C#Cc1cccc(Nc2ncnc3cc(OC)c(OCCCCCCC(=O)NO)cc23)c1 [CUDC-101]

Kd [5]: > 30 µM (inactive)
Compound: Cc1nc2cc(-n3ncc(C(=O)c4cc5ccccc5[nH]4)c3N)ccc2[nH]1 [FGFR INHIBITOR DEBIO 1347]

Kd [1]: > 30 µM (inactive)
Kd [2]: > 30 µM (inactive)
Kd [10]: > 30 µM (inactive)
Compound: Cc1cccc(-c2nn3c(c2-c2ccnc4ccc(C(N)=O)cc24)CCC3)n1 [GALUNISERTIB]

Kd [5]: > 30 µM (inactive)
Kd [3]: > 30 µM (inactive)
Kd [6]: > 30 µM (inactive)
Kd [10]: > 30 µM (inactive)
Compound: CCn1cc(-c2ccnc3[nH]c(-c4cccc(CN(C)C)c4)cc23)c(-c2ccc(NC(=O)N(C)C)cc2)n1 [GSK-1070916]

Kd [5]: > 30 µM (inactive)
Compound: COc1ccc(S(=O)(=O)N(C(C)=O)c2ccccc2/C=C/c2cc[n+]([O-])cc2)cc1 [HMN-214]

Kd [8]: > 30 µM (inactive)
Kd [4]: > 30 µM (inactive)
Compound: CNC(=O)c1nn(C)c2c1C(C)(C)Cc1cnc(Nc3ccc(N4CCN(C)CC4)cc3)nc1-2 [MILCICLIB]

Kd [4]: > 30 µM (inactive)
Kd [10]: > 30 µM (inactive)
Compound: NC1(c2ccc(-c3nc4ccn5c(=O)[nH]nc5c4cc3-c3ccccc3)cc2)CCC1 [MK-2206]

Kd [1]: > 30 µM (inactive)
Kd [6]: > 30 µM (inactive)
Kd [9]: > 30 µM (inactive)
Kd [10]: > 30 µM (inactive)
Compound: Cn1cc(-c2cnc3ccc4ccc(CS(=O)(=O)NCc5ccccn5)cc4c(=O)c3c2)cn1 [MK-8033]

Kd [7]: > 30 µM (inactive)
Kd [5]: > 30 µM (inactive)
Compound: Cc1[nH]c(/C=C2\C(=O)Nc3ccccc32)c(C)c1CCC(=O)O [ORANTINIB]

Kd [4]: > 30 µM (inactive)
Compound: CCS(=O)(=O)c1cccc(-c2cc(C(=O)NC3CCN(C)CC3)c(C)c3[nH]c4ncc(C)cc4c23)c1 [TAK-901]

Kd [5]: > 30 µM (inactive)
Kd [1]: > 30 µM (inactive)
Kd [3]: > 30 µM (inactive)
Kd [6]: > 30 µM (inactive)
Kd [9]: > 30 µM (inactive)
Kd [10]: > 30 µM (inactive)
Compound: O=C(Cc1ccc(-c2ccc(OCCN3CCOCC3)cc2)cn1)NCc1ccccc1 [TIRBANIBULIN]

Kd [3]: > 30 µM (inactive)
Compound: Cn1ncc(Cl)c1-c1cc(C(=O)N[C@H](CN)Cc2ccc(F)c(F)c2)oc1Cl [UPROSERTIB]
